One series deals with HPV31 pseudoviruses. The series is described as follows: HPV31 pseudovirus infection in HaCaT cells. The class given is cell-based. The procedure:
FIG. 4. Compounds 13 and 14 can inhibit infection by multiple anogenital HPVs. Shown are results from infection experiments in HaCaT cells monitoring the efficiency of infection by HPV16, HPV11 and HPV31 pseudovirus carrying the firefly luciferase gene in the absence (0 μM, vehicle only) or increasing concentrations (0.1 to 100 μM) of Compound 13 or 14. The Y axis is the relative efficiency of infection (squares) or cell viability (circles) as a function of drug concentration (X axis). All data points represent the average of values from triplicate samples. […] Data for HPV16 is the also plotted in FIG. 2.
Compounds 13 and 14: inhibition of infection by multiple papillomavirus genotypes. The goal of this study is to identify compounds that inhibit all sexually transmitted HPVs. For this reason, we monitored the ability of Compounds 13 and 14 to inhibit infection of two additional papillomavirus pseudoviruses that were generated using the capsid proteins of two other sexually transmitted HPVs, high risk HPV31 and low risk HPV11. […]
At 4 hours prior to exposure of cell to pseudoviruses, compounds were added to plates in 1% DMSO final concentration at the indicated amounts. […] Cell viability was assessed in parallel plates by Luminescent Cell Viability Assay (Promega Cat. #G7571).

In another series the test system is HPV16 virus. The series is described as follows: Wild type HPV16 infection in 293T cells, early viral gene expression by real time PCR. The class given is cell-based. The following applies: 5 to 10 μM (FIG. 3: 10 μM), 48 hours post infection. How it is done: FIG. 3. Inhibition of infection by HPV 16 virus. Shown is the relative efficiency of infection by HPV16 virus in 293T cells as scored by quantifying early viral transcription using real time PCR for E2 (dark grey bars), E5 (white bars) and E7 (light grey bars) containing mRNAs at 48 hours post-infection in the absence (DMSO—vehicle only, values set at 100%) or the presence of the indicated compound (10 μM concentration). Data points shown are the average of triplicate sample values. The dotted line indicates the normalized value for no drug (set as 100% infection value).
The 21 selected compounds were also tested for their ability to inhibit infection by bonafide HPV16 in 293T cells by measuring early viral gene expression by real time PCR at 48 hours post infection (FIG. 3) after treatment of the cell with 5 to 10 μM of each compound. Consistently with the data of reporter gene assays, HPV early gene expression was inhibited by Compounds 4, 13, 14, 18 and 20. Given the large differences in IC50 and CD50, and the reproducible capacity to inhibit infection by HPV16 pseudovirus and HPV16 virus in different cell types, Compounds 13 and 14 were selected for further analysis.
After 2 day infection, total RNA was isolated from infected cell lysate and treated with DNase I (Promega) as previously. (Pyeon, D. et al., Establishment of human papillomavirus infection requires cell cycle progression, PLos Pathog. 2009 February; 5(2):e1000318. Epub 2009 Feb. 27). Complementary DNA (cDNA) was synthesized from the normalized total RNA with the SuperScript cDNA synthesis kit (Invitrogen). All oligonucleotide primers (0.5 μM) for PCR are previously published (Pyeon D. et al., Production of infectious human papillomavirus independently of viral replication and epithelial cell differentiation, Proc. Nat'l Acad. Sci. USA, 2005 Jun. 28; 102(26):9311-6, Epub 2005 Jun. 15) or listed in Table 2.
Conventional PCR was performed with Taq DNA polymerase (Promega) and the following cycle: denaturation at 94° C. for 5 min, 42 cycles of 94° C. for 30 sec., 55° C. for 1 min., and 72° C. for 1 min., followed by extension at 72° C. for 7 min. Final products were analyzed by 1% agarose gel electrophoresis and ethidium bromide staining. Quantitative RT-PCR was performed using QuantiTect SYBR green PCR kit (Qiagen) with the following cycle: denaturation at 95° C. for 5 min. and 40 cycles of 95° C. for 30 sec., 55° C. for 30 sec., and 72° C. for 30 sec.
In general terms: Real-time PCR tracks product formation cycle by cycle.

The nature of series [1]: in vitro. The following applies: human.
Series [2] in a line: in vitro. The following applies: human. The source holds these as a separate data set.
Description: The protocol for the secondary screen was identical to that of the primary screen with the exception that all volumes were scaled up by a factor of four. RL activity was measured using the Renilla Luciferase Assay System (Promega).

Usually IC50 stands for the point on the concentration scale where inhibition reaches its midpoint. The low end stands for greater potency in that assay, the high end for weaker potency in that assay. The viability is a read-out of living cells in per cent, often relative to untreated cells.

Entries after “also recorded” stand apart in the source; their conditions may differ.

`CCCn1c2ccccc2c2nnc(SC(CC)C(=O)Nc3ccc(Cl)cn3)nc21` (stereo not drawn) [Compound 13, N-(5-chloro-2-pyridinyl)-2-[(5-propyl-5H-[1,2,4]triazino[5,6-b]indol-3-yl)thio]butanamide] yielded an IC50 with HPV31 pseudoviruses of 150 nM. The “Inhibition of HPV16 early gene expression (E2, E5, E7 mRNAs)” value in the series on HPV16 virus was “reproducible and significant inhibition; also recorded: inhibited”.
`Cc1cc(C(c2ccc(F)cc2)c2cc(C)c(NC(=O)c3ccccc3)c(C)c2)cc(C)c1NC(=O)c1ccccc1` [Compound 14, N,N′[[(4-fluorophenyl)methylene]bis(2,6-dimethyl-4,1-phenylene)]dibenzamide] gave an IC50 in the series on HPV31 pseudoviruses of under 100 nM. Further, the “Inhibition of HPV16 early gene expression (E2, E5, E7 mRNAs)” value in the series on HPV16 virus is “reproducible and significant inhibition; also recorded: inhibited”. Further, the viability at 52 h, 3.3 μM in the series “in vitro [1]” and in “in vitro [2]” was 106% throughout.

The values above are taken from US9949980B2, “Drugs to prevent HPV infection” (Wisconsin Alumni Research Foundation, priority 2008, dated 2018).
